Results as given in patent US20040018941A1, “Fused-benzene derivatives of thiouracil, herbicidal and desiccant compositions contaning them” (ISHIHARA SANGYO KAISHA, LTD., priority 2002, published 2004).

Experiments:
Assay type in all cases: in vivo
Details in all cases: rating 0-100 (0 no damage, 100 complete death), 14 days after application
[1] = tested on: redroot pigweed (Amaranthus retroflexus, AMARE); test: Pre-emerge herbicidal activity, greenhouse screen, AMARE
Description: (§1) A standard greenhouse herbicide activity screening system was used to evaluate the herbicidal efficacy and crop safety of these test compounds. Seven broadleaf weed species including redroot pigweed (Amaranthus retroflexus, AMARE), velvetleaf (Abutilon theophrasti, ABUTH), sicklepod (Cassia obtusifolia, CASOB), ivyleaf morningglory (Ipomoea hederacea, IPOHE), lambsquarters (Chenopodium album, CHEAL), common ragweed (Ambrosia artemisiifolia L., AMBEL), and cocklebur (Xanthium strumarium, XANST) were used as test species. Four grass weed species including green foxtail (Setaria viridis, SETVI), barnyardgrass (Echinochloa crus-galli, ECHCG), johnsongrass (Sorghum halepense, SORHA), and large crabgrass (Digitaria sanguinalis, DIGSA) were also used. In addition, three crop species, field corn (Zea mays L., var. Dekalb 527, CORN), soybean (Glycine max L., var. Pella 86, SOY), and upland rice (Oryza sp., var. Tebonnet, RICE) were included.
(§2) All plants were grown in 10 cm square plastic pots which were filled with a sandy loam soil mix. For pre-emerge tests, seeds were planted one day prior to application of the test compounds. For post-emerge tests, seeds were planted 8-21 days prior to the test to allow emergence and good foliage development prior to application of the test substances. At the time of the post-emerge application, plants of all species were usually at the 2-3 leaf stage of development.
(§3) All test compounds were dissolved in acetone and applied to the test units in a volume of 187 l/ha. Test materials were applied at rates ranging from 15 g ai/ha to 1000 g ai/ha using a track sprayer equipped with a TJ8001 E even flow flat fan spray nozzle. Plants were arranged on a shelf so that the top of the canopy (post-emerge) or top of the soil surface (pre-emerge) was 40-45 cm below the nozzle. Pressurized air was used to force the test solution through the nozzle as it was mechanically advanced over the top of all test plants/pots. This application simulates a typical commercial field herbicide application.
(§4) In the post-emerge test, a commercial non-ionic surfactant was also included (0.25% v/v) to enhance wetting of the leaf surfaces of target plants. Immediately after application, test units of the pre-emerge applications were watered at the soil surface to incorporate the test materials.
(§5) At 14 days after application of the test materials, phytotoxicity ratings were recorded. A rating scale of 0-100 was used as previously described in Research Methods in Weed Science, 2nd edition, B. Truelove, Ed., Southern Weed Science Society, Auburn University, Auburn, Ala., 1977. Briefly, “0” corresponds to no damage and “100” corresponds to complete death of all plants in the test unit. This scale was used both to determine efficacy against weed species and damage to crop species. Herbicide activity data for various compounds of this invention, which are shown by compound No. in Tables 1-7, are shown in Tables 8 and 9.

[2] = tested on: velvetleaf (Abutilon theophrasti, ABUTH); test: Pre-emerge herbicidal activity, greenhouse screen, ABUTH
Description: as §1, §2, §3, §4, §5

[3] = tested on: sicklepod (Cassia obtusifolia, CASOB); test: Pre-emerge herbicidal activity, greenhouse screen, CASOB
Description: as §1, §2, §3, §4, §5

[4] = tested on: ivyleaf morningglory (Ipomoea hederacea, IPOHE); test: Pre-emerge herbicidal activity, greenhouse screen, IPOHE
Description: as §1, §2, §3, §4, §5

[5] = tested on: lambsquarters (Chenopodium album, CHEAL); test: Pre-emerge herbicidal activity, greenhouse screen, CHEAL
Description: as §1, §2, §3, §4, §5

[6] = tested on: common ragweed (Ambrosia artemisiifolia L., AMBEL); test: Pre-emerge herbicidal activity, greenhouse screen, AMBEL
Description: as §1, §2, §3, §4, §5

[7] = tested on: green foxtail (Setaria viridis, SETVI); test: Pre-emerge herbicidal activity, greenhouse screen, SETVI
Description: as §1, §2, §3, §4, §5

[8] = tested on: barnyardgrass (Echinochloa crus-galli, ECHCG); test: Pre-emerge herbicidal activity, greenhouse screen, ECHCG
Description: as §1, §2, §3, §4, §5

[9] = tested on: johnsongrass (Sorghum halepense, SORHA); test: Pre-emerge herbicidal activity, greenhouse screen, SORHA
Description: as §1, §2, §3, §4, §5

[10] = tested on: large crabgrass (Digitaria sanguinalis, DIGSA); test: Pre-emerge herbicidal activity, greenhouse screen, DIGSA
Description: as §1, §2, §3, §4, §5

[11] = tested on: field corn (Zea mays L., var. Dekalb 527, CORN); test: Pre-emerge crop damage, greenhouse screen, CORN
Description: as §1, §2, §3, §4, §5

[12] = tested on: soybean (Glycine max L., var. Pella 86, SOY); test: Pre-emerge crop damage, greenhouse screen, SOY
Description: as §1, §2, §3, §4, §5

[13] = tested on: upland rice (Oryza sp., var. Tebonnet, RICE); test: Pre-emerge crop damage, greenhouse screen, RICE
Description: as §1, §2, §3, §4, §5

[14] = tested on: redroot pigweed (Amaranthus retroflexus, AMARE); test: Post-emerge herbicidal activity, greenhouse screen, AMARE
Description: as §1, §2, §3, §4, §5

[15] = tested on: velvetleaf (Abutilon theophrasti, ABUTH); test: Post-emerge herbicidal activity, greenhouse screen, ABUTH
Description: as §1, §2, §3, §4, §5

[16] = tested on: sicklepod (Cassia obtusifolia, CASOB); test: Post-emerge herbicidal activity, greenhouse screen, CASOB
Description: as §1, §2, §3, §4, §5

[17] = tested on: ivyleaf morningglory (Ipomoea hederacea, IPOHE); test: Post-emerge herbicidal activity, greenhouse screen, IPOHE
Description: as §1, §2, §3, §4, §5

[18] = tested on: lambsquarters (Chenopodium album, CHEAL); test: Post-emerge herbicidal activity, greenhouse screen, CHEAL
Description: as §1, §2, §3, §4, §5

[19] = tested on: common ragweed (Ambrosia artemisiifolia L., AMBEL); test: Post-emerge herbicidal activity, greenhouse screen, AMBEL
Description: as §1, §2, §3, §4, §5

[20] = tested on: green foxtail (Setaria viridis, SETVI); test: Post-emerge herbicidal activity, greenhouse screen, SETVI
Description: as §1, §2, §3, §4, §5

[21] = tested on: barnyardgrass (Echinochloa crus-galli, ECHCG); test: Post-emerge herbicidal activity, greenhouse screen, ECHCG
Description: as §1, §2, §3, §4, §5

[22] = tested on: johnsongrass (Sorghum halepense, SORHA); test: Post-emerge herbicidal activity, greenhouse screen, SORHA
Description: as §1, §2, §3, §4, §5

[23] = tested on: large crabgrass (Digitaria sanguinalis, DIGSA); test: Post-emerge herbicidal activity, greenhouse screen, DIGSA
Description: as §1, §2, §3, §4, §5

[24] = tested on: field corn (Zea mays L., var. Dekalb 527, CORN); test: Post-emerge crop damage, greenhouse screen, CORN
Description: as §1, §2, §3, §4, §5

[25] = tested on: soybean (Glycine max L., var. Pella 86, SOY); test: Post-emerge crop damage, greenhouse screen, SOY
Description: as §1, §2, §3, §4, §5

[26] = tested on: upland rice (Oryza sp., var. Tebonnet, RICE); test: Post-emerge crop damage, greenhouse screen, RICE
Description: as §1, §2, §3, §4, §5

Cn1c(C(F)(F)F)cc(=O)n(-c2c(F)ccc3nc(C(C)(C)C)oc23)c1=S [Compound 1-5]
90: Pre-emerge Herbicidal Activity CASOB ([3]; 63 g ai/ha) | Post-emerge Herbicidal Activity CASOB ([16]; 250 g ai/ha) | Post-emerge Herbicidal Activity AMBEL ([19]; 63 g ai/ha)
65: Post-emerge Herbicidal Activity RICE (crop damage) ([26]; 63 g ai/ha)
80: Pre-emerge Herbicidal Activity RICE (crop damage) ([13]; 250 g ai/ha) | Post-emerge Herbicidal Activity SETVI ([20]; 63 g ai/ha)
100: Pre-emerge Herbicidal Activity AMARE ([1]; 63 g ai/ha) | Pre-emerge Herbicidal Activity AMARE ([1]; 250 g ai/ha) | Pre-emerge Herbicidal Activity ABUTH ([2]; 63 g ai/ha) | Pre-emerge Herbicidal Activity ABUTH ([2]; 250 g ai/ha) | Pre-emerge Herbicidal Activity CASOB ([3]; 250 g ai/ha) | Pre-emerge Herbicidal Activity IPOHE ([4]; 63 g ai/ha) | Pre-emerge Herbicidal Activity IPOHE ([4]; 250 g ai/ha) | Pre-emerge Herbicidal Activity CHEAL ([5]; 63 g ai/ha) | Pre-emerge Herbicidal Activity CHEAL ([5]; 250 g ai/ha) | Pre-emerge Herbicidal Activity AMBEL ([6]; 250 g ai/ha) | Pre-emerge Herbicidal Activity SETVI ([7]; 63 g ai/ha) | Pre-emerge Herbicidal Activity SETVI ([7]; 250 g ai/ha) | Pre-emerge Herbicidal Activity ECHCG ([8]; 63 g ai/ha) | Pre-emerge Herbicidal Activity ECHCG ([8]; 250 g ai/ha) | Pre-emerge Herbicidal Activity SORHA ([9]; 250 g ai/ha) | Pre-emerge Herbicidal Activity DIGSA ([10]; 63 g ai/ha) | Pre-emerge Herbicidal Activity DIGSA ([10]; 250 g ai/ha) | Pre-emerge Herbicidal Activity CORN (crop damage) ([11]; 250 g ai/ha) | Post-emerge Herbicidal Activity AMARE ([14]; 250 g ai/ha) | Post-emerge Herbicidal Activity ABUTH ([15]; 63 g ai/ha) | Post-emerge Herbicidal Activity ABUTH ([15]; 250 g ai/ha) | Post-emerge Herbicidal Activity IPOHE ([17]; 63 g ai/ha) | Post-emerge Herbicidal Activity IPOHE ([17]; 250 g ai/ha) | Post-emerge Herbicidal Activity CHEAL ([18]; 250 g ai/ha) | Post-emerge Herbicidal Activity AMBEL ([19]; 250 g ai/ha) | Post-emerge Herbicidal Activity ECHCG ([21]; 63 g ai/ha) | Post-emerge Herbicidal Activity ECHCG ([21]; 250 g ai/ha)
0: Pre-emerge Herbicidal Activity SOY (crop damage) ([12]; 63 g ai/ha)
75: Post-emerge Herbicidal Activity SORHA ([22]; 250 g ai/ha) | Post-emerge Herbicidal Activity DIGSA ([23]; 250 g ai/ha) | Post-emerge Herbicidal Activity SOY (crop damage) ([25]; 250 g ai/ha)
15: Post-emerge Herbicidal Activity CORN (crop damage) ([24]; 63 g ai/ha)
55: Pre-emerge Herbicidal Activity RICE (crop damage) ([13]; 63 g ai/ha) | Post-emerge Herbicidal Activity SORHA ([22]; 63 g ai/ha)
99: Pre-emerge Herbicidal Activity AMBEL ([6]; 63 g ai/ha) | Pre-emerge Herbicidal Activity SORHA ([9]; 63 g ai/ha) | Pre-emerge Herbicidal Activity SOY (crop damage) ([12]; 250 g ai/ha) | Post-emerge Herbicidal Activity AMARE ([14]; 63 g ai/ha)
85: Pre-emerge Herbicidal Activity CORN (crop damage) ([11]; 63 g ai/ha) | Post-emerge Herbicidal Activity SETVI ([20]; 250 g ai/ha)
70: Post-emerge Herbicidal Activity RICE (crop damage) ([26]; 250 g ai/ha)
30: Post-emerge Herbicidal Activity CORN (crop damage) ([24]; 250 g ai/ha)
95: Post-emerge Herbicidal Activity CHEAL ([18]; 63 g ai/ha)
60: Post-emerge Herbicidal Activity CASOB ([16]; 63 g ai/ha) | Post-emerge Herbicidal Activity DIGSA ([23]; 63 g ai/ha)
50: Post-emerge Herbicidal Activity SOY (crop damage) ([25]; 63 g ai/ha)
